Experimental data published in US7045648B2, “Compound as cholinesterase inhibitor and its isolation from fungus sporotrichum species” (priority 2002, dated 2006).
pIC50: −log10 of the molar value.

Key:
[1] = Solubility in organic solvents; format: physicochemical; details: in ethyl acetate, methanol and acetone
[2] = molecular target: T1, rat brain acetylcholinesterase (Rattus norvegicus, UniProt P37136); assay: Rat brain acetylcholinesterase inhibition (Ellman method); format: biochemical; details: rat brain enzyme; 15 min pre-incubation at 25° C.; acetyl thiocholine iodide 0.5 mM; pH 7.4; read-out: IC50 against rat brain AchE
T1 construct: from tissue; host or cells: rat brain
T1 sequence (P37136 32-614): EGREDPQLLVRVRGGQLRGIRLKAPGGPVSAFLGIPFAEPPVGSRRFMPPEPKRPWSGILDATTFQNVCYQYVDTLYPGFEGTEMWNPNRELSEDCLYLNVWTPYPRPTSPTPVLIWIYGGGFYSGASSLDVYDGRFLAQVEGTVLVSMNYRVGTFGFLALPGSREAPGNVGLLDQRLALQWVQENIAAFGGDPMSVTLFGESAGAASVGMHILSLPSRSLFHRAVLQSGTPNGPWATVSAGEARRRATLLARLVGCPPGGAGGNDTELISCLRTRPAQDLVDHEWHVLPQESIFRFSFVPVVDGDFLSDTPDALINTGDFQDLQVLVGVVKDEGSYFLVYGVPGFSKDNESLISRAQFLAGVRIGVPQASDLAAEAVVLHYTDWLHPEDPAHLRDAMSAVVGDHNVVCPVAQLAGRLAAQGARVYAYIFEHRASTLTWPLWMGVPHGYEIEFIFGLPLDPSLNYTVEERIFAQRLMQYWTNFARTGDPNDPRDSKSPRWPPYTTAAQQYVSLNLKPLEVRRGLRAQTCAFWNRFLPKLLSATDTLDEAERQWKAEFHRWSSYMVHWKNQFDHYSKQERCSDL
Method: Absorbance change at 412 nm is monitored every 30 seconds for 2 min in an UV-VIS Spectrophotometer. Inhibition is calculated relative to the solvent control. IC50 is determined by regression analysis.

[3] = molecular target: T2, acetylcholinesterase from erythrocytes (Homo sapiens, UniProt P22303); assay: Erythrocyte acetylcholinesterase inhibition; format: biochemical, rat; details: erythrocyte enzyme; read-out: IC50 against acetylcholinesterase from erythrocytes
T2 construct: from tissue; host or cells: erythrocytes

[4] = system: serine esterase of the rat liver serum; assay: Serine esterase inhibition; format: biochemical
[5] = system: mosquito larvae culex quinquifasciatus; assay: Insecticidal activity against mosquito larvae; format: in vivo; details: in water (70 ppm); exposed for 24 hrs
Method: Yet another embodiment of the present invention, wherein said compound effective against mosquito larvae at an optimum concentration of 70 μg/ml water (70 ppm) when exposed for 24 hrs.
Still another embodiment of the present invention, wherein the insecticidal activity of the compound against mosquito larvae is selected from culex quinquifasciatus.

T2 sequence (P22303 32-617 isoform P22303-2 limits assumed): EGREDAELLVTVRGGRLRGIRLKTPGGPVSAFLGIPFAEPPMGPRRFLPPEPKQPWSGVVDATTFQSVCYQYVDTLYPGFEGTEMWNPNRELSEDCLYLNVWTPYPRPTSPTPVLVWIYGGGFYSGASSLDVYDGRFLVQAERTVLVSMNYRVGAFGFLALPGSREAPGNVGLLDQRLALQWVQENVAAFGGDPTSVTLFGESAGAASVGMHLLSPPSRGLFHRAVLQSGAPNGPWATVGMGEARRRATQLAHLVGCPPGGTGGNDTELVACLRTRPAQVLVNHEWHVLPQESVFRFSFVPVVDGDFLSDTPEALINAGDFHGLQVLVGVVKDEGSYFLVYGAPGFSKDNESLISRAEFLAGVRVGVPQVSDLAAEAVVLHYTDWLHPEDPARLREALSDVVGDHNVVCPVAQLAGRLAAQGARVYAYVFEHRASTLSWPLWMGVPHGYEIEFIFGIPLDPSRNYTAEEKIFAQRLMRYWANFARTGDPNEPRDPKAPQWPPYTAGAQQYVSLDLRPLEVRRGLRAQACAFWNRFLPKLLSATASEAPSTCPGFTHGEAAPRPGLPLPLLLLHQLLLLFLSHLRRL

Q: For `COc1ccc(C(=O)O)c(C(O)CCCCCCCC(=O)CC(C)O)c1` (centres unmarked) [Sporotricolone, 12-(2′-CARBOXY-5′-METHOXYPHENYL)-2,12-DIHYDROXY-DODECA-4-ONE], which Solubility [1] is on record?
A: The Solubility was “Highly soluble”.

Q: And the pIC50 [2]?
A: Its pIC50 is 4.70.

Q: What about the pIC50 [3] of the same molecule?
A: The pIC50 was 4.70.

Q: And the “inhibition of serine esterase of the rat liver serum” value [4]?
A: The value was “inhibitor”.

Q: And the “optimum concentration effective against mosquito larvae” value [5]?
A: Its value is 70 µg/mL.
